Laboratory results: patent US8859559B2, “Substituted pyrazines and their use in the treatment of disease” (Boehringer Ingelheim International GmbH, priority 2011, dated 2014)

What follows are compounds tested against T1, ENaC (Epithelial Sodium Channel) (Mus musculus, UniProt Q61180+Q9WU38+Q9WU39) (assay: Ussing chamber: inhibition of amiloride sensitive short circuit current (I_sc) in M-1 cells). Conditions: mouse kidney M-1 cells.
T1 construct: Mouse kidney M-1 cells were cultivated in DMEM; endogenous in cells; host or cells: Mouse kidney M-1 cells (dexamethasone-treated, on transwell filters)
T1 sequence (Q61180 1-699): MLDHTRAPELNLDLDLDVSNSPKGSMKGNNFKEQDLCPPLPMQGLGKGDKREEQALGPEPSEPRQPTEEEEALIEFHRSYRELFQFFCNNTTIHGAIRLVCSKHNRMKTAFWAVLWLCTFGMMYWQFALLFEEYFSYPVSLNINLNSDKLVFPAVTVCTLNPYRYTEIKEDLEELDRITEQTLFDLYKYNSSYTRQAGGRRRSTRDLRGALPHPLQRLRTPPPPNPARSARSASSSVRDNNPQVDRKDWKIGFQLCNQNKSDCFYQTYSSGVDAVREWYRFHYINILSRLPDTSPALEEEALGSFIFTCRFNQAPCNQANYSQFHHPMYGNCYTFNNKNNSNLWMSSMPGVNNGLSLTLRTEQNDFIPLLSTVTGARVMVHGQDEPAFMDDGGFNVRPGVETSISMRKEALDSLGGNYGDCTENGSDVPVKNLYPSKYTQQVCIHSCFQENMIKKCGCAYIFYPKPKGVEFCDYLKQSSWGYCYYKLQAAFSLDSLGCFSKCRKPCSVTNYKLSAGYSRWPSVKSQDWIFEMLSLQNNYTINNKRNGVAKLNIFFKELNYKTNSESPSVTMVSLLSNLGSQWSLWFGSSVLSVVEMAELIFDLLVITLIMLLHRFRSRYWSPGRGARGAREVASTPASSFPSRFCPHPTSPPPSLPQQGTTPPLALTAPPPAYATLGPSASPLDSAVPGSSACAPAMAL
T1 sequence (Q9WU38 1-638): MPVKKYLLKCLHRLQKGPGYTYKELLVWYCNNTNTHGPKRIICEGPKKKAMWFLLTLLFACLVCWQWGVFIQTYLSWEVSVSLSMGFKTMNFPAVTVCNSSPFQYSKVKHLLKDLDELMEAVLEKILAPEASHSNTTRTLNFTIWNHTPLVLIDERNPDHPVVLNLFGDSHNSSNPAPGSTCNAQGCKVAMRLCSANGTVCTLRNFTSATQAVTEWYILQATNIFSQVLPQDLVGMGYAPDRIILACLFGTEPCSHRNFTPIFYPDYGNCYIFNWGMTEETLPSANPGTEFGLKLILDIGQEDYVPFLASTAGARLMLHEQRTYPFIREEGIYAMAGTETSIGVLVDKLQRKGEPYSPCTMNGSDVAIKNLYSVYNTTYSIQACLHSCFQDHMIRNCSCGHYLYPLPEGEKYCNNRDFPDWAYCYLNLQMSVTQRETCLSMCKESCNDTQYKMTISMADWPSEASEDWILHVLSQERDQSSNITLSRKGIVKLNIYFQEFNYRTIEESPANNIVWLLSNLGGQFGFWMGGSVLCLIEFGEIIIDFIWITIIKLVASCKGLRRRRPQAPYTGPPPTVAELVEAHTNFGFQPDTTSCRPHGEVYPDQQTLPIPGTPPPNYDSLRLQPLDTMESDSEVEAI
T1 sequence (Q9WU39 1-655): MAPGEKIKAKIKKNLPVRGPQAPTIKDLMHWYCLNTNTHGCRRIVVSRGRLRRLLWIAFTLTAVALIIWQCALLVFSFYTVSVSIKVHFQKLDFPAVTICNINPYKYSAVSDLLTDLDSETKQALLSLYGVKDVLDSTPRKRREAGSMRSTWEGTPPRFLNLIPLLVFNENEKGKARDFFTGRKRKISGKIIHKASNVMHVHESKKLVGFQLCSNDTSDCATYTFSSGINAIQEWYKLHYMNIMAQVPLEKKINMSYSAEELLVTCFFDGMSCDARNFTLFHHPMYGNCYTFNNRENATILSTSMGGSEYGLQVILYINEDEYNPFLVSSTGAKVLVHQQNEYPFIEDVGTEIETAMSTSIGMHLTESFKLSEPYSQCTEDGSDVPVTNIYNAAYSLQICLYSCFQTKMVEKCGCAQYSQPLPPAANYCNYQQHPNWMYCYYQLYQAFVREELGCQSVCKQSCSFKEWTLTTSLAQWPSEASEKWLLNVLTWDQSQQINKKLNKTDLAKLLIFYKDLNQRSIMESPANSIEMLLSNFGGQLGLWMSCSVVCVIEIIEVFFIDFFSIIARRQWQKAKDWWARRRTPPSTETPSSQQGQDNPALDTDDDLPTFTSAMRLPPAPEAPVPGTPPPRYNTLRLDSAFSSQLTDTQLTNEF
Assay type: cell-based
Protocol: Mouse kidney M-1 cells were cultivated in DMEM containing 5% FCS and 5 μM dexamethasone for 10 to 12 days on polyester transwell filters. Filters were inserted into a teflon-coated well-plate which fit into the in-house ussing chamber system. Prior to measurement the medium of M-1 cells was replaced with Caco-2 transport buffer (Invitrogen, Germany). During measurements, the Ussing chamber temperature was kept at 37° C. Short circuit currents (I_sc) were measured in the voltage-clamp mode using an in-house built amplifier (Boehringer Ingelheim, Biberach) with the software package Lab View for data acquisition and analysis. The transepithelial electrical resistance (TEER) was determined by the application of voltage steps of ±5 mV every 5 sec. Compounds were administered at a final concentration of 3 μM or at increasing concentrations (1-3-10 μM) to the apical solution. At the end of each experiment the amiloride sensitive I_SC was measured by adding 3 μM amiloride to the apical compartment. Results are expressed as inhibition in percent of the amiloride effect or as IC50. With the example compounds given above, the following IC50 values were determined in the Ussing Chamber assay: […]
In the case of `NC(=NC(=O)c1nc(Cl)c(N)nc1N)NC1CC2CCC(C1)N2Cc1ccccc1` (single isomer, unassigned) [Example 1.27], the IC50 is reported as 49 nM.
`NC(=NC(=O)c1nc(Cl)c(N)nc1N)NC1CC2CCC(C1)N2Cc1ccccc1` (single isomer, unassigned) [Example 1.28] was tested, and the IC50 was 16 nM.
Compound `COC(=O)c1ccc(CN2CCC(N/C(N)=N/C(=O)c3nc(Cl)c(N)nc3N)CC2)c(OC)c1` [Example 1.1] has an IC50 of 5 nM.
`N/C(=N\C(=O)c1nc(Cl)c(N)nc1N)NC1CCN(Cc2ccc(CO)cc2)CC1` [Example 1.2] showed an IC50 of 10 nM.
`[N-]=[N+]=NCCc1ccc(CN2CCC(NC(N)=NC(=O)c3nc(Cl)c(N)nc3N)CC2)cc1` [Example 1.3] was tested, and the IC50 was 4 nM.
With `C#CCOc1ccc(CN2CCC(NC(N)=NC(=O)c3nc(Cl)c(N)nc3N)CC2)cc1` [Example 1.4] the IC50 was 4 nM.
With `COC(=O)c1ccc(=O)n(Cc2ccc(CN3CCC(NC(N)=NC(=O)c4nc(Cl)c(N)nc4N)CC3)cc2)c1` [Example 1.5] the IC50 was 7 nM.
Work on `COC(=O)Cc1cccc(CN2CCC(NC(N)=NC(=O)c3nc(Cl)c(N)nc3N)CC2)c1` [Example 1.6] yielded an IC50 of 4 nM.
Compound `[N-]=[N+]=NCCOCCOCCOCCNC(=O)c1ccc(CN2CCC(NC(N)=NC(=O)c3nc(Cl)c(N)nc3N)CC2)cc1` [Example 1.7] has an IC50 of 4 nM.
`CCOP(=O)(Cc1ccc(CN2CCC(NC(N)=NC(=O)c3nc(Cl)c(N)nc3N)CC2)cc1)OCC` [Example 1.8] gave an IC50 of 10 nM.
`C#CCCCCOC(=O)c1ccc(CN2CCC(NC(N)=NC(=O)c3nc(Cl)c(N)nc3N)CC2)cc1` [Example 1.9] showed an IC50 of 8 nM.
`[N-]=[N+]=Nc1ccc(CN2CCC(N/C(N)=N/C(=O)c3nc(Cl)c(N)nc3N)CC2)cc1` [Example 1.10] gave an IC50 of 6 nM.
In the case of `COC(=O)c1ccc(CN2CCC(N/C(N)=N/C(=O)c3nc(Cl)c(N)nc3N)CC2)c(Cl)c1` [Example 1.12], the IC50 is reported as 4 nM.
In the case of `CCOP(=O)(OCC)c1ccc(CN2CCC(NC(N)=NC(=O)c3nc(Cl)c(N)nc3N)CC2)cc1` [Example 1.13], the IC50 is reported as 5 nM.
`CN(C)CCNC(=O)c1ccc(CN2CCC(NC(N)=NC(=O)c3nc(Cl)c(N)nc3N)CC2)cc1` [Example 1.14] was tested, and the IC50 was 1 nM.
`N/C(=N\C(=O)c1nc(Cl)c(N)nc1N)NC1CCN(Cc2ccc(B(O)O)cc2)CC1` [Example 1.15] gave an IC50 of 7 nM.
`CCOC(=O)c1ccc(=O)n(-c2ccc(CN3CCC(NC(N)=NC(=O)c4nc(Cl)c(N)nc4N)CC3)cc2)c1` [Example 1.16] showed an IC50 of 17 nM.
Work on `COC(=O)c1ccc(CN2CCC(C)(NC(N)=NC(=O)c3nc(Cl)c(N)nc3N)CC2)cc1` [Example 1.17] yielded an IC50 of 66 nM.
`[N-]=[N+]=NCCOCCOCCOCCOc1ccc(CN2CCC(NC(N)=NC(=O)c3nc(Cl)c(N)nc3N)CC2)cc1` [Example 1.18] was tested, and the IC50 was 7 nM.
For `COc1ccc(CCN2CCC(NC(N)=NC(=O)c3nc(Cl)c(N)nc3N)CC2)cc1` [Example 1.19], the IC50 was 12 nM.
With `COc1ccc(C(=O)CN2CCC(NC(N)=NC(=O)c3nc(Cl)c(N)nc3N)CC2)cc1` [Example 1.20] the IC50 was 11 nM.
Compound `N#Cc1ccc(OCCN2CCC(NC(N)=NC(=O)c3nc(Cl)c(N)nc3N)CC2)cc1` [Example 1.21] has an IC50 of 11 nM.
Work on `NC(=NC(=O)c1nc(Cl)c(N)nc1N)NC1CCCN(Cc2ccccc2)CC1` (stereo not shown) [Example 1.22] yielded an IC50 of 14 nM.
For `NC(=NC(=O)c1nc(Cl)c(N)nc1N)NC1CCN(Cc2ccc(C(=O)NCCCn3ccnc3)cc2)CC1` [Example 1.23], the IC50 was 2 nM.
In the case of `NC(=NC(=O)c1nc(Cl)c(N)nc1N)NC1CCN(Cc2ccc(C(=O)NCCc3cccnc3)cc2)CC1` [Example 1.24], the IC50 is reported as 3 nM.
With `N/C(=N\C(=O)c1nc(Cl)c(N)nc1N)NC1CCN(Cc2ccccc2)CC1` [Example 1.25] the IC50 was 6 nM.
`NC(=NC(=O)c1nc(Cl)c(N)nc1N)NC1CCN(Cc2ccccc2)C1` (stereo not shown) [Example 1.26] was tested, and the IC50 was 20 nM.
Work on `COC(=O)c1ccc(CN2CCC(N/C(N)=N/C(=O)c3nc(Cl)c(N)nc3N)CC2)cc1` [Example 1.29] yielded an IC50 of 2 nM.
Compound `N/C(=N\C(=O)c1nc(Cl)c(N)nc1N)NC1CCN(Cc2ccc(O)cc2)CC1` [Example 1.31] has an IC50 of 7 nM.
For `C#Cc1cccc(CN2CCC(NC(N)=NC(=O)c3nc(Cl)c(N)nc3N)CC2)c1` [Example 1.32], the IC50 was 7 nM.
With `CN(C)CCCOc1ccc(CN2CCC(NC(N)=NC(=O)c3nc(Cl)c(N)nc3N)CC2)cc1` [Example 1.34] the IC50 was 5 nM.
`COC(=O)c1cccc(CN2CCC(NC(N)=NC(=O)c3nc(Cl)c(N)nc3N)CC2)c1` [Example 1.36] showed an IC50 of 3 nM.
`COC(=O)C(c1ccccc1)N1CCC(NC(N)=NC(=O)c2nc(Cl)c(N)nc2N)CC1` (stereo not shown) [Example 1.37] was tested, and the IC50 was 17 nM.
With `COC(=O)Cc1ccc(CN2CCC(NC(N)=NC(=O)c3nc(Cl)c(N)nc3N)CC2)cc1` [Example 1.38] the IC50 was 8 nM.
With `NC(=NC(=O)c1nc(Cl)c(N)nc1N)NC1CCN(Cc2ccc(C(=O)NCCOCCOCCO)cc2)CC1` [Example 1.39] the IC50 was 6 nM.
`N#Cc1ccc(CN2CCC(N/C(N)=N/C(=O)c3nc(Cl)c(N)nc3N)CC2)cc1` [Example 1.40] was tested, and the IC50 was 2 nM.
`CC(=O)Oc1ccc(CN2CCC(N/C(N)=N/C(=O)c3nc(Cl)c(N)nc3N)CC2)cc1` [Example 1.41] was tested, and the IC50 was 7 nM.
In the case of `COC(=O)COc1ccc(CN2CC[C@H](NC(N)=NC(=O)c3nc(Cl)c(N)nc3N)C2)cc1` [Example 1.42], the IC50 is reported as 59 nM.
For `COC(=O)c1ccccc1CN1CCC(NC(N)=NC(=O)c2nc(Cl)c(N)nc2N)CC1` [Example 1.43], the IC50 was 15 nM.
In the case of `COC(=O)COc1cccc(CN2CCC(NC(N)=NC(=O)c3nc(Cl)c(N)nc3N)CC2)c1` [Example 1.44], the IC50 is reported as 20 nM.
`COC(=O)CCc1ccc(CN2CCC(NC(N)=NC(=O)c3nc(Cl)c(N)nc3N)CC2)cc1` [Example 1.45] gave an IC50 of 10 nM.
For `COC(=O)COc1ccc(CN2CC[C@@H](NC(N)=NC(=O)c3nc(Cl)c(N)nc3N)C2)cc1` [Example 1.46], the IC50 was 73 nM.
Compound `NCCOCCOCCNC(=O)c1ccc(CN2CCC(NC(N)=NC(=O)c3nc(Cl)c(N)nc3N)CC2)cc1` [Example 1.47] has an IC50 of 3 nM.
Compound `COCCOc1ccc(C(=O)NCCOCCOCCNC(=O)c2ccc(CN3CCC(NC(N)=NC(=O)c4nc(Cl)c(N)nc4N)CC3)cc2)cc1` [Example 1.49] has an IC50 of 6 nM.
Compound `C#Cc1ccc(CN2CCC(NC(N)=NC(=O)c3nc(Cl)c(N)nc3N)CC2)cc1` [Example 1.50] has an IC50 of 5 nM.
Work on `N/C(=N\C(=O)c1nc(Cl)c(N)nc1N)NC1CCN(Cc2ccc(C(=O)O)cc2)CC1` [Example 1.51] yielded an IC50 of 23 nM.
